Test results reported in patent publication US20230059009A1, “INHIBITORS OF LIN28 AND METHODS OF USE THEREOF” (The Regents of the University of California, priority 2019, published 2023).
Each block holds one compound with its values, some of them ahead of it.

What was measured:
[1] = target: T1, LIN28B/pre-let-7a-2 binding (Homo sapiens, UniProt Q6ZN17); test: FRET assay, EGFP-tagged LIN28B and BHQ-1 labelled pre-let-7a-2; details: doses 1.25 uM-20 uM; compared with LN1632
T1 construct: made in house; host or cells: stably transduced HEK cells; used as diluted protein lysate, not purified
T1 sequence (Q6ZN17 1-250): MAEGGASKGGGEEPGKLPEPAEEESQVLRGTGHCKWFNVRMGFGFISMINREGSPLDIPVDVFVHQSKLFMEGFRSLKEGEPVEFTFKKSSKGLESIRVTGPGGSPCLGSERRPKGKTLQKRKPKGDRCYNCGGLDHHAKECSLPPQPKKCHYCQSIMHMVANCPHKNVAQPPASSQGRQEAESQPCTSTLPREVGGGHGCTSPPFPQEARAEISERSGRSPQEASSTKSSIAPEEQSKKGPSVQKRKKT
Description: As described herein, compounds of formula (I) and (II) show Lin28/let-7 inhibitory activity in FRET assays in vitro and in LSCs and LSC-like Kasumi-1 cells. FRET assay was performed as previously described (51).
In order to improve binding and inhibitory capacity of a compound to LIN28b, we predicted the binding mode of LN1632 to LIN28B. […] With this model in hand, we synthesized novel compounds with improved binding capacity to Lin28b (JGJ002-JGJ008, FIG. 8). Compounds were screened using a previously described FRET-assay with an EGFP-tagged LIN28B as donor and a BHQ-1 quencher labelled pre-let-7a-2 (pre-let-7a-2-BHQ1) as acceptor (51). Briefly, recombinant LIN28B-EGFP was harvested from stably transduced HEK cells and diluted with binding buffer (300 mM NaCl, 25 mM HEPES pH 7.2, 10 μM ZnCl2, 1% Odyssey Blocking Buffer, 0.05% Tween 20, 0.5 mM TCEP) in order to adjust ideal FRET-quenching signal intensity. Protein lysate and compounds (JGJ001-JGJ008) were pre-incubated in doses ranging from 1.25 uM-20 uM for 20 min in 100 uL diluted protein lysate. Subsequently pre-let-7a-2-BHQ1 was added to the mixture (at 6.25 nM) and EGFP-LIN28B donor emission was measured using a Tecan Spark Plate Reader ([…], excitation at 488 nm, emission read-out at […], 30 flashes/s). […] Increased endogenous let-7 miRNA levels can target a panoply of LCS and cancer stem cell hallmark genes thus inhibiting tumor growth.
(§1) To test the structure-activity relationship, 39 LN1632-related analogs (JGJ001-39) were synthesized and their potency and specificity to inhibit LIN28B-RNA binding activity and upregulate mature let-7 miRNA levels was measured. […] The dual luciferase reporter assay was performed as previously described (89).

H1975 = test: Cell viability, MTT assay, H1975; format: cell-based; details: Homo sapiens, NCI-H1975, H1975 (Lung)
Description: (§2) To measure cell viability, cell titer glow (CTG, Promega CellTiter-Glo 2.0 Assay) and MTT assays (SigmaAldrich, Cell Proliferation Kit I) were performed. Briefly, cells were serum starved overnight prior to seeding in 96-well plates. Following 24 h incubation, cells were treated with increasing concentrations of JGJ compounds for 96 hr. At assay read-out, CellTiter-Glo reagent was added and luminescence was measured after 10-minutes incubation at room temperature. For the MTT assay, MTT labeling reagent was added and incubated for 4 h. Subsequently, medium was removed and 50 μL DMSO was added to solubilize the crystals, and absorbance was measured at 570 nm. Cell viability was calculated as (Sample-Background)/(Control-Background).

A549 = test: Cell viability, MTT assay, A549; format: cell-based; details: Homo sapiens, A549 (Lung)
Description: as §2

[2] = Microsomal stability, Human; format: in vitro ADME; details: Conc. 5 uM
CYP 1A2 = target: T2, CYP 1A2 (Homo sapiens, UniProt P05177); test: CYP inhibition 1A2; format: in vitro ADME; parameters: unit not given here; details: Conc. 10 uM
T2 sequence (P05177 1-516): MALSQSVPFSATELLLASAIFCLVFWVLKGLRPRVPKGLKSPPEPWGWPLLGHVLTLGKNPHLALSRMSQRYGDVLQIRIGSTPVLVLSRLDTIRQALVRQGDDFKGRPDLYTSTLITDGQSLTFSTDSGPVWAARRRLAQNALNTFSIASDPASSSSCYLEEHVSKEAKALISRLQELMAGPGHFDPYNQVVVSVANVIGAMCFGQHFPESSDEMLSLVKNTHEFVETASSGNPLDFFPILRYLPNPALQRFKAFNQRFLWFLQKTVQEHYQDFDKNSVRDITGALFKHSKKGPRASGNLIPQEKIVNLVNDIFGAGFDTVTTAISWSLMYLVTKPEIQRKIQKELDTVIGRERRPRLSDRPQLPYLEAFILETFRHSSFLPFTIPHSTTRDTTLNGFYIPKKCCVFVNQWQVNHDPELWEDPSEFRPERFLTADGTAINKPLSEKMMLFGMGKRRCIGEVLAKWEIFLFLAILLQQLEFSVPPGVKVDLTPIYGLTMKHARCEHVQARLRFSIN

Caco2 permeability = format: in vitro ADME; details: human, Caco-2, Conc. 5 uM
CYP 2D6 = CYP 2D6 (Homo sapiens, UniProt P10635); test: CYP inhibition 2D6; format: in vitro ADME; parameters: unit not given here; details: Conc. 10 uM
Sequence of CYP 2D6 (P10635 whole entry): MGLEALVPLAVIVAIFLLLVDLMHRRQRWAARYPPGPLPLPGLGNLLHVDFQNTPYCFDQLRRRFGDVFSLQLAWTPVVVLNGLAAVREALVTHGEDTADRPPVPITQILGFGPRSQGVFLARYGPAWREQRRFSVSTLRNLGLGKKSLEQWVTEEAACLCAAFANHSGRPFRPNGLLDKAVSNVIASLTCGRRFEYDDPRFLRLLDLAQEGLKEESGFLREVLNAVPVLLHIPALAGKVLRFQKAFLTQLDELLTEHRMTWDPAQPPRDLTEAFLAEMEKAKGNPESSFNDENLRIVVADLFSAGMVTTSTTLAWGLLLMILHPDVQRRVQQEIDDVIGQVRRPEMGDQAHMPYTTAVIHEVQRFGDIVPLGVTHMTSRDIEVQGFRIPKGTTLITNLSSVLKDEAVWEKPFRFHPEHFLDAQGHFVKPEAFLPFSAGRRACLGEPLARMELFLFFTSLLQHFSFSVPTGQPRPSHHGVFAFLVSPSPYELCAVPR

CYP 2C8 = target: T3, CYP 2C8 (Homo sapiens, UniProt P10632); test: CYP inhibition 2C8; format: in vitro ADME; parameters: unit not given here; details: Conc. 10 uM
T3 sequence (P10632 1-490): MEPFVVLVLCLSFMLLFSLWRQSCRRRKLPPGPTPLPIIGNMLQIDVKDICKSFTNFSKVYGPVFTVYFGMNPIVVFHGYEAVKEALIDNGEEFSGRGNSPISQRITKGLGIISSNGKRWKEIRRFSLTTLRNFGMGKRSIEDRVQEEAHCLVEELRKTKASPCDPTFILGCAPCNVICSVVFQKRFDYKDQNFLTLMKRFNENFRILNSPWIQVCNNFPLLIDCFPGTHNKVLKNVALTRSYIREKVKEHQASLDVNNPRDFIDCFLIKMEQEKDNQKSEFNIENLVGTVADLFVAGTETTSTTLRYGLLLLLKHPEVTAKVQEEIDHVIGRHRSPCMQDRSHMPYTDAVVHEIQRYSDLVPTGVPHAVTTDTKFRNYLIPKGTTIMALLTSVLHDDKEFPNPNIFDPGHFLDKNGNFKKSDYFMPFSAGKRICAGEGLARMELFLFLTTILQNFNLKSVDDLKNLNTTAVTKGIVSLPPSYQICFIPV

CYP 2C19 = CYP 2C19 (Homo sapiens, UniProt P33261); test: CYP inhibition 2C19; format: in vitro ADME; parameters: unit not given here; details: Conc. 10 uM
Sequence of CYP 2C19 (P33261 whole entry): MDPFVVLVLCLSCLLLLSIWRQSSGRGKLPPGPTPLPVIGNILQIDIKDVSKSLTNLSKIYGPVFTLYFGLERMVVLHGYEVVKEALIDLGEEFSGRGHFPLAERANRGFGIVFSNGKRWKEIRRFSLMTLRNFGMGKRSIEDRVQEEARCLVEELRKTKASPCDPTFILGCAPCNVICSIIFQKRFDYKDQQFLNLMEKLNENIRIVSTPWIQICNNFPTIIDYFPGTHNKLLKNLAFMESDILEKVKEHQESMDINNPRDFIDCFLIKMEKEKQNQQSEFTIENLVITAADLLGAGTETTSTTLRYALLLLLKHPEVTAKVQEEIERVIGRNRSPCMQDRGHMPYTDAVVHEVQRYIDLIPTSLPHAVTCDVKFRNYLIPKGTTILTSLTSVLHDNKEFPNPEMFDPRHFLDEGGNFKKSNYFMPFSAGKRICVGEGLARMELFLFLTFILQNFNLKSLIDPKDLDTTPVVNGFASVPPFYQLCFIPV

CYP 2C9 = CYP 2C9 (Homo sapiens, UniProt P11712); test: CYP inhibition 2C9; format: in vitro ADME; parameters: unit not given here; details: Conc. 10 uM
Sequence of CYP 2C9 (P11712 whole entry): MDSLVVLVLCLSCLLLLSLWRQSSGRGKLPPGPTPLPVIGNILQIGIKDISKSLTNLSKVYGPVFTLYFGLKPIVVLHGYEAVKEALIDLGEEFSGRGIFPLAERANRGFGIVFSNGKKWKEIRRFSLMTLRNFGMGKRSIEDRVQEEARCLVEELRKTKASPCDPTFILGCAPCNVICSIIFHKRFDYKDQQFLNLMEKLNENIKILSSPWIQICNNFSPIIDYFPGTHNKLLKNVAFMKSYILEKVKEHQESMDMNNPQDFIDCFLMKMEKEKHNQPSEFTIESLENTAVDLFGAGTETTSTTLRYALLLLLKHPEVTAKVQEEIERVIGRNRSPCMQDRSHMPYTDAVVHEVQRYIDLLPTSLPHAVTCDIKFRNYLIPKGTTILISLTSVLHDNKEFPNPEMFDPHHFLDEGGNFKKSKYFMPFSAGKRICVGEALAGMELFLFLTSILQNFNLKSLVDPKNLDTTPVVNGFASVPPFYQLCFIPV

[3] = Microsomal stability, CD-1 Mouse; format: in vitro ADME; details: Conc. 5 uM
mature let-7 miRNAs = test: Dual luciferase reporter assay of mature let-7 miRNAs in HepG2 cells; format: cell-based; details: 3-10 μM, compared with LN1632
Description: as §1

CYP 2B6 = target: T4, CYP 2B6 (Homo sapiens, UniProt P20813); test: CYP inhibition 2B6; format: in vitro ADME; parameters: unit not given here; details: Conc. 10 uM
T4 sequence (P20813 1-491): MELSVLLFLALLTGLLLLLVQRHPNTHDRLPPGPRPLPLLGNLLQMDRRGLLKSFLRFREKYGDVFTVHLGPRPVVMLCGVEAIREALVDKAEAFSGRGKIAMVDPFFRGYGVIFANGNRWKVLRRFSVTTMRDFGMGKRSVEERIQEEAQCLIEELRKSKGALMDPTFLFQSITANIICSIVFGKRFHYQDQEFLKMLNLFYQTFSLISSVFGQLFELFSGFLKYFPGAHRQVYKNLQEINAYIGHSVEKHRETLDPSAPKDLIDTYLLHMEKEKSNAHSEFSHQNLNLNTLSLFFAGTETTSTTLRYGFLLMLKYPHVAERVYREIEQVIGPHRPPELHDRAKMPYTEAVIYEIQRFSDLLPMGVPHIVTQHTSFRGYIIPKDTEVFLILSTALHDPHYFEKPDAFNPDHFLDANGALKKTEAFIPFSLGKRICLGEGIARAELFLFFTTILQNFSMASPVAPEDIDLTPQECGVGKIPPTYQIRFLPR

[4] = microsomes, read-out: Microsomal stability T½

SMILES: CC(=O)N(C)c1cccc(-c2ccc3ncc(C)n3n2)c1 [JGJ008, N-Methyl-N-(3-(3-methylimidazo[1,2-b]pyridazin-6-yl)phenyl)acetamide]
Inhibition of LIN28B binding to pre-let-7a (FRET signal) [1]: greater inhibition of the LIN28B/pre-let-7a2 binding than the original compound LN1632

SMILES: Nc1cccc(-c2ccc3ncc(-c4ccccc4)n3c2)c1 [JGJ032, 3-(3-Phenylimidazo[1,2-a]pyridin-6-yl)aniline]
Inhibition of LIN28B binding to pre-let-7a (FRET signal) [1]: inhibit LIN28's RNA-binding capacity significantly more than compound LN1632

IC50 (H1975): 21 µM
IC50 (A549): 11 µM
SMILES: C=CC(=O)Nc1cc(Nc2nccc(-c3cn(C)c4ccccc34)n2)c(OC)cc1N(C)CCN(C)C [Osimertinib, reference compound]

Microsomal stability % Remaining at T30 [2]: T30 = 54.7%
microsomal CLint at 5 uM ([2]; microsomes): 38.2 µL/min/mg
half-life at 5 uM [2, 4]: 36.2 min
CYP inhibition 1A2 (CYP 1A2): 96.2
Papp A→B at 5 uM (Caco2 permeability): 27.2 ×10⁻⁶ cm/s
Papp B→A at 5 uM (Caco2 permeability): 25 ×10⁻⁶ cm/s
efflux ratio at 5 uM (Caco2 permeability): 0.6
recovery at 5 uM (Caco2 permeability; read-out: Caco2 Mean A-B % Recovery): 84%
CYP inhibition 2D6 (CYP 2D6): 67.8
CYP inhibition 2C8 (CYP 2C8): 61.1
CYP inhibition 2C19 (CYP 2C19): 35
CYP inhibition 2C9 (CYP 2C9): 48.8
Microsomal stability % Remaining at T30 [3]: T30 = 17%
microsomal CLint at 5 uM ([3]; microsomes): 118 µL/min/mg
half-life at 5 uM [3, 4]: 11.8 min
CYP inhibition 2B6 (CYP 2B6): 30.9
SMILES: CC(=O)Nc1cc(F)cc(-c2ccc3ncc(C)n3n2)c1 [JGJ026, N-(3-Fluoro-5-(3-methylimidazo[1,2-b]pyridazin-6-yl)phenyl)acetamide]
Upregulation of mature let-7 miRNAs (mature let-7 miRNAs): upregulated mature let-7 miRNAs at significantly lower doses than LN1632
Inhibition of LIN28B binding to pre-let-7a (FRET signal) [1]: inhibit LIN28's RNA-binding capacity significantly more than compound LN1632

SMILES: Cc1cnc2ccc(-c3cccc([N+](=O)[O-])c3)nn12 [JGJ005, 3-Methyl-6-(3-nitrophenyl)imidazo[1,2-b]pyridazine]
Inhibition of LIN28B binding to pre-let-7a (FRET signal) [1]: greater inhibition of the LIN28B/pre-let-7a2 binding than the original compound LN1632
